Like-named read-outs stand apart in the source and are kept apart here.
Experiments:
Format in all cases: cell-based
[1] = molecular target: T1, LRRK2 (endogenous, HiBit tagged) (Homo sapiens, UniProt Q5S007); experiment: Endogenous LRRK2 degradation assay, endogenous gene C-terminally HiBit-tagged in HEK293 cells (Nano-Glo Dual Luciferase); details: endogenous HiBit-tagged LRRK2 in HEK293 cells, 24 hours; for Dmax: read-out: **Endogenous WT Dmax (%); for DC50: read-out: *Endogenous WT DC50
T1 construct: endogenous in cells; host or cells: HEK293 cells with HiBit knock-in at the endogenous LRRK2 locus, stably expressing firefly luciferase
T1 sequence (Q5S007 whole entry): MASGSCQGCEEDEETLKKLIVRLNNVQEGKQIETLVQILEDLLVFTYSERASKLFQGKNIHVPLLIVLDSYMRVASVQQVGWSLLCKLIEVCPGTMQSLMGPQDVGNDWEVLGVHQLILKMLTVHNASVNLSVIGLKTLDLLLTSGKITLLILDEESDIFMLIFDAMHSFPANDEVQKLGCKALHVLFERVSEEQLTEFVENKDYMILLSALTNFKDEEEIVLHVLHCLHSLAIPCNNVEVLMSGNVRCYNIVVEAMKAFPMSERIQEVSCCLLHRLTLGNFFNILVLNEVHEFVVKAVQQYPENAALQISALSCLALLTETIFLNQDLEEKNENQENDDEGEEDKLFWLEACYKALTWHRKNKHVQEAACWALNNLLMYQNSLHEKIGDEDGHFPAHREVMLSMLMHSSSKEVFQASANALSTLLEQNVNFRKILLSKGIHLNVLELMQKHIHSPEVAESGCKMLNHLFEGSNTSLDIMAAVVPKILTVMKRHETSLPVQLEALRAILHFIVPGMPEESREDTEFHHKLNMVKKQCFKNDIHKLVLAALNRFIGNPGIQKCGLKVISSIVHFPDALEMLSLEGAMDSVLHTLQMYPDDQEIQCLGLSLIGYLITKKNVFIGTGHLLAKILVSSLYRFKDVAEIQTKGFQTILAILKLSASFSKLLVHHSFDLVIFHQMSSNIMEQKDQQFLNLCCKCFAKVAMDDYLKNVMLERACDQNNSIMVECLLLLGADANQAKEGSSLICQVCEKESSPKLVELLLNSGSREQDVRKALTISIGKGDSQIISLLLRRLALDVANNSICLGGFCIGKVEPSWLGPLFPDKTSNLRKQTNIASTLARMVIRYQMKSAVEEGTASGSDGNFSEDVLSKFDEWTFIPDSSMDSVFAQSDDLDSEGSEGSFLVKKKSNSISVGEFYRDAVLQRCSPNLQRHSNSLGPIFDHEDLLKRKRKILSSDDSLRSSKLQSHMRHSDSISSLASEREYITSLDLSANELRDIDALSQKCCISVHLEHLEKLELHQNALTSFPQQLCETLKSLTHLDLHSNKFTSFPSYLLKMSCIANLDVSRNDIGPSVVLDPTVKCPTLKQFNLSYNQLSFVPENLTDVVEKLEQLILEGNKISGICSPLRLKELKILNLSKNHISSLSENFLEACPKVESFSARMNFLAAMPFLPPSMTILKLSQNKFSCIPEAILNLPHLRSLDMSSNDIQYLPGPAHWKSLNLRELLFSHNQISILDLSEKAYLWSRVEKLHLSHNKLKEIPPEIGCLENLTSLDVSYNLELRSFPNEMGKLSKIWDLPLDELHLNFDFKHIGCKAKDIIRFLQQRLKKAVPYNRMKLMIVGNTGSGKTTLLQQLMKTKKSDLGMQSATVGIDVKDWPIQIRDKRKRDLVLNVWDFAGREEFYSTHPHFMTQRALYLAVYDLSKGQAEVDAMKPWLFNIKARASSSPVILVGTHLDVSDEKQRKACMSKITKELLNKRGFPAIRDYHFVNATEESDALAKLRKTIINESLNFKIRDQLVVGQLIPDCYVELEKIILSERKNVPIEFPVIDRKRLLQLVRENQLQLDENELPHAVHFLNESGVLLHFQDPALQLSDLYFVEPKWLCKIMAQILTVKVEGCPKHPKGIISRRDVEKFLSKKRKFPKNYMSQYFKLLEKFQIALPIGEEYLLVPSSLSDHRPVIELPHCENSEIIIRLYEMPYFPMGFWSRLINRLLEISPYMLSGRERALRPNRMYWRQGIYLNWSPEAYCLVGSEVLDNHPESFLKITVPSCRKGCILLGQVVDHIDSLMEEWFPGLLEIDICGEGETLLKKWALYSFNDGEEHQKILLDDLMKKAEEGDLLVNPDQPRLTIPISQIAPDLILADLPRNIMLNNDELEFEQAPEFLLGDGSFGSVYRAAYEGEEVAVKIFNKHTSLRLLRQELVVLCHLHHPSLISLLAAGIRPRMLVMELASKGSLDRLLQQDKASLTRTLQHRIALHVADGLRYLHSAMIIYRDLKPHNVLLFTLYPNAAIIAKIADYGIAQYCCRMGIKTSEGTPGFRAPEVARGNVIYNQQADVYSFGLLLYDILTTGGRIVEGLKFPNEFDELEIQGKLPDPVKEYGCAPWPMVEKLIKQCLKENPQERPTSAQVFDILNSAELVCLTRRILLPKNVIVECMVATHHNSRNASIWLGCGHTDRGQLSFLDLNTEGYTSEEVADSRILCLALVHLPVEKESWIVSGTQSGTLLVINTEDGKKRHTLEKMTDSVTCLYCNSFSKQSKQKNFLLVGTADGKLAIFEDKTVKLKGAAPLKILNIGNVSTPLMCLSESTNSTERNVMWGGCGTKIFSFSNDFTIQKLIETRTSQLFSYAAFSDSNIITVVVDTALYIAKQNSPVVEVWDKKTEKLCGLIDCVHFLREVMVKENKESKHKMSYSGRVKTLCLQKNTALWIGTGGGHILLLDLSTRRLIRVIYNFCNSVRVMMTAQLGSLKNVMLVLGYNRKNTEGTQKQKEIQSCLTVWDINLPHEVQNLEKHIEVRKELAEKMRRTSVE
Procedure, shortened: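 LRRK2-HiBit quantified via Nano-Glo Dual Luciferase in HEK293 knock-in cells co-expressing firefly luciferase, after 24 h exposure to compound (1 μM final top, 1:3, 11 points). Values normalised to DMSO median per plate and curve-fitted; Alamar Blue viability run alongside.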

G2019S LRRK2 = molecular target: T2, G2019S LRRK2 (Homo sapiens, UniProt Q5S007, G2019S); experiment: LRRK2 degradation assay, HiBit-tagged G2019S LRRK2 expressed from plasmid in HEK293 cells (Nano-Glo Dual-Luciferase); details: 24 hours
T2 construct: expressed in transfected cells; host or cells: HEK293 (ATCC CRL-1573), transient transfection, mammalian expression vector with ubiquitin promoter
T2 sequence (Q5S007 whole entry G2019S): as the sequence (Q5S007 whole entry) above, with G2019S counted along it
Procedure, shortened: (§1)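 Degradation read as Nano-Glo HiBiT signal over firefly luciferase (cell number/viability) after 24 h compound exposure of transiently transfected HEK293 expressing C-terminally HiBiT-tagged wildtype or G2019S LRRK2. Data as % DMSO; DC50/Dmax fitted per plate, triplicate plates repeated twice.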

wildtype LRRK2 = molecular target: T3, wildtype LRRK2 (Homo sapiens, UniProt Q5S007); experiment: LRRK2 degradation assay, HiBit-tagged wildtype LRRK2 expressed from plasmid in HEK293 cells (Nano-Glo Dual-Luciferase); details: 24 hours; for Dmax: read-out: **WT Dmax (%); for DC50: read-out: *WT DC50
T3 construct: expressed in transfected cells; host or cells: HEK293 (ATCC CRL-1573), transient transfection, mammalian expression vector with ubiquitin promoter
T3 sequence (Q5S007 whole entry): as the sequence (Q5S007 whole entry) above
Procedure, shortened: as §1

[2] = HiBit-tagged G2019S LRRK2 in HEK293 cells
[3] = HiBit-tagged wildtype LRRK2 in HEK293 cells
[4] = HiBit-tagged G2019S LRRK2, HEK293 cells
[5] = HiBit-tagged wildtype LRRK2, HEK293 cells

CC1(Oc2ccc3n[nH]c(-c4cc(N5CCC(CN6CCN(CC7CCN(c8ccc9c(c8)C(=O)N(C8CCC(=O)NC8=O)C9=O)CC7)CC6)CC5)ncn4)c3c2)CC1 (stereo not shown) [Compound 68, 2-(2,6-dioxo-3-piperidyl)-5-[4-[[4-[[1-[6-[5-(1-methylcyclopropoxy)-2H-indazol-3-yl]pyrimidin-4-yl]-4-piperidyl]methyl]piperazin-1-yl]methyl]-1-piperidyl]isoindoline-1,3-dione]
Dmax [1]: ≥ 70%
DC50 [1]: < 0.01 µM
DC50 (G2019S LRRK2; [2]): < 0.01 µM
Dmax (G2019S LRRK2; [2]): ≥ 70%
Dmax (wildtype LRRK2; [3]): ≥ 70%
DC50 (wildtype LRRK2; [3]): < 0.01 µM

CC1(Oc2ccc3n[nH]c(-c4cc(N5CCC(COC6CCN(CC7CCN(c8ccc9c(c8)C(=O)N(C8CCC(=O)NC8=O)C9=O)CC7)CC6)CC5)ncn4)c3c2)CC1 (stereo not shown) [Compound 61, 2-(2,6-dioxo-3-piperidyl)-5-[4-[[4-[[1-[6-[5-(1-methylcyclopropoxy)-2H-indazol-3-yl]pyrimidin-4-yl]-4-piperidyl]methoxy]-1-piperidyl]methyl]-1-piperidyl]isoindoline-1,3-dione]
Dmax [1]: ≥ 70%
DC50 [1]: < 0.01 µM
DC50 (G2019S LRRK2; [2]): < 0.01 µM
Dmax (G2019S LRRK2; [2]): ≥ 70%
Dmax (wildtype LRRK2; [3]): ≥ 70%
DC50 (wildtype LRRK2; [3]): < 0.01 µM

C[C@H]1CN(c2cc(-c3[nH]nc4ccc(OC5(C)CC5)cc34)ncn2)CCN1CCC1(F)CCN(CC2CCN(c3ccc4c(c3)CN(C3CCC(=O)NC3=O)C4=O)CC2)CC1 (stereo partly drawn) [Compound 64, 3-[5-[4-[[4-fluoro-4-[2-[(2S)-2-methyl-4-[6-[5-(1-methylcyclopropoxy)-2H-indazol-3-yl]pyrimidin-4-yl]piperazin-1-yl]ethyl]-1-piperidyl]methyl]-1-piperidyl]-1-oxo-isoindolin-2-yl]piperidine-2,6-dione]
Dmax [1]: ≥ 70%
DC50 [1]: < 0.01 µM
DC50 (G2019S LRRK2; [2]): < 0.01 µM
Dmax (G2019S LRRK2; [2]): ≥ 70%
Dmax (wildtype LRRK2; [3]): ≥ 70%
DC50 (wildtype LRRK2; [3]): < 0.01 µM

CC1(Oc2ccc3[nH]nc(-c4ccnc(N5CC(F)(CN6CCN(CC7CCN(c8ccc9c(c8)C(=O)N(C8CCC(=O)NC8=O)C9=O)CC7)CC6)C5)c4)c3c2)CC1 (stereo not shown) [Compound 132, 2-(2,6-dioxopiperidin-3-yl)-5-[4-({4-[(3-fluoro-1-{4-[5-(1-methylcyclopropoxy)-1H-indazol-3-yl]pyridin-2-yl}azetidin-3-yl)methyl]piperazin-1-yl}methyl)piperidin-1-yl]-2,3-dihydro-1H-isoindole-1,3-dione]
Dmax [1]: ≥ 70%
DC50 [1]: < 0.01 µM
DC50 (G2019S LRRK2; [2]): < 0.01 µM
Dmax (G2019S LRRK2; [2]): 50 to 70%
Dmax (wildtype LRRK2; [3]): 50 to 70%
DC50 (wildtype LRRK2; [3]): < 0.01 µM

CC1(Oc2ccc3n[nH]c(-c4cc(N5CC(F)(CN6CCN(CC7CCN(c8ccc9c(c8)C(=O)N(C8CCC(=O)NC8=O)C9=O)CC7)CC6)C5)ncn4)c3c2)CC1 (stereo not shown) [Compound 131, 2-(2,6-dioxo-3-piperidyl)-5-[4-[[4-[[3-fluoro-1-[6-[5-(1-methylcyclopropoxy)-2H-indazol-3-yl]pyrimidin-4-yl]azetidin-3-yl]methyl]piperazin-1-yl]methyl]-1-piperidyl]isoindoline-1,3-dione]
Dmax [1]: ≥ 70%
DC50 [1]: < 0.01 µM
DC50 (G2019S LRRK2; [2]): < 0.01 µM
Dmax (G2019S LRRK2; [2]): ≥ 70%
Dmax (wildtype LRRK2; [3]): ≥ 70%
DC50 (wildtype LRRK2; [3]): < 0.01 µM

C[C@H]1CN(c2cc(-c3n[nH]c4ccc(OC5(C)CC5)cc34)ncn2)CCN1CCC1(F)CCN(CC2CCN(c3ccc4c(c3)C(=O)N(C3CCC(=O)NC3=O)C4=O)CC2)CC1 (stereo partly drawn) [Compound 52, 2-(2,6-dioxo-3-piperidyl)-5-[4-[[4-fluoro-4-[2-[(2S)-2-methyl-4-[6-[5-(1-methylcyclopropoxy)-1H-indazol-3-yl]pyrimidin-4-yl]piperazin-1-yl]ethyl]-1-piperidyl]methyl]-1-piperidyl]isoindoline-1,3-dione]
Dmax [1]: ≥ 70%
DC50 [1]: 0.01 to 0.05 µM
DC50 (G2019S LRRK2; [2]): < 0.01 µM
Dmax (G2019S LRRK2; [2]): 50 to 70%
Dmax (wildtype LRRK2; [3]): 50 to 70%
DC50 (wildtype LRRK2; [3]): < 0.01 µM

CC1(Oc2ccc3n[nH]c(-c4cc(N5CCC(CN6CCN(CC7CCN(c8ccc9c(c8)CN(C8CCC(=O)NC8=O)C9=O)CC7)CC6)CC5)ncn4)c3c2)CC1 (stereo not shown) [Compound 112, 3-[5-[4-[[4-[[1-[6-[5-(1-methylcyclopropoxy)-2H-indazol-3-yl]pyrimidin-4-yl]-4-piperidyl]methyl]piperazin-1-yl]methyl]-1-piperidyl]-1-oxo-isoindolin-2-yl]piperidine-2,6-dione]
Dmax [1]: ≥ 70%
DC50 [1]: < 0.01 µM
DC50 (G2019S LRRK2; [2]): < 0.01 µM
Dmax (G2019S LRRK2; [2]): ≥ 70%
Dmax (wildtype LRRK2; [3]): ≥ 70%
DC50 (wildtype LRRK2; [3]): < 0.01 µM

CC1(Oc2ccc3[nH]nc(-c4cc(N5CCN(CC(F)(F)C6CCN(CC7CCN(c8cccc9c8C(=O)N(C8CCC(=O)NC8=O)C9=O)CC7)CC6)CC5)ncn4)c3c2)CC1 (stereo not shown) [Compound 148, 4-[4-[[4-[1,1-difluoro-2-[4-[6-[5-(1-methylcyclopropoxy)-1H-indazol-3-yl]pyrimidin-4-yl]piperazin-1-yl]ethyl]-1-piperidyl]methyl]-1-piperidyl]-2-(2,6-dioxo-3-piperidyl)isoindoline-1,3-dione]
DC50 (G2019S LRRK2; [2]): 0.01 to 0.05 µM
Dmax (G2019S LRRK2; [2]): 50 to 70%
Dmax (wildtype LRRK2; [3]): < 50%
DC50 (wildtype LRRK2; [3]): 0.01 to 0.05 µM

CC1(Oc2ccc3[nH]nc(-c4cc(N5CCN(C[C@@H]6CN(CCC7CCN(c8ccc9c(c8)C(=O)N(C8CCC(=O)NC8=O)C9=O)CC7)CCO6)CC5)ncn4)c3c2)CC1 (stereo partly drawn) [Compound 158, 2-(2,6-dioxo-3-piperidyl)-5-[4-[2-[(2R)-2-[[4-[6-[5-(1-methylcyclopropoxy)-1H-indazol-3-yl]pyrimidin-4-yl]piperazin-1-yl]methyl]morpholin-4-yl]ethyl]-1-piperidyl]isoindoline-1,3-dione]
DC50 (G2019S LRRK2; [4]): < 0.01 µM
Dmax (G2019S LRRK2; [4]): ≥ 70%
Dmax (wildtype LRRK2; [5]): ≥ 70%
DC50 (wildtype LRRK2; [5]): < 0.01 µM

CC1(Oc2ccc3[nH]nc(-c4ccnc(N5CCC(CN6CCN(C(=O)C7CCN(c8ccc9c(c8)C(=O)N(C8CCC(=O)NC8=O)C9=O)CC7)CC6)CC5)c4)c3c2)CC1 (stereo not shown) [Compound 95, 2-(2,6-dioxopiperidin-3-yl)-5-(4-{4-[(1-{4-[5-(1-methylcyclopropoxy)-1H-indazol-3-yl]pyridin-2-yl}piperidin-4-yl)methyl]piperazine-1-carbonyl}piperidin-1-yl)-2,3-dihydro-1H-isoindole-1,3-dione]
DC50 (G2019S LRRK2; [2]): < 0.01 µM
Dmax (G2019S LRRK2; [2]): 50 to 70%
Dmax (wildtype LRRK2; [3]): 50 to 70%
DC50 (wildtype LRRK2; [3]): < 0.01 µM

CC1(Oc2ccc3[nH]nc(-c4cc(N5CCN(CC6CCN(C(=O)C7CCN(c8ccc9c(c8)C(=O)N(C8CCC(=O)NC8=O)C9=O)CC7)CC6)CC5)ncn4)c3c2)CC1 (stereo not shown) [Compound 90, 2-(2,6-dioxopiperidin-3-yl)-5-(4-{4-[(4-{6-[5-(1-methylcyclopropoxy)-1H-indazol-3-yl]pyrimidin-4-yl}piperazin-1-yl)methyl]piperidine-1-carbonyl}piperidin-1-yl)-2,3-dihydro-1H-isoindole-1,3-dione]
DC50 (G2019S LRRK2; [2]): < 0.01 µM
Dmax (G2019S LRRK2; [2]): 50 to 70%
Dmax (wildtype LRRK2; [3]): < 50%
DC50 (wildtype LRRK2; [3]): < 0.01 µM

CC1(Oc2ccc3[nH]nc(-c4cc(N5CCC(CN6CCC(F)(CN7CCN(c8ccc9c(c8)C(=O)N(C8CCC(=O)NC8=O)C9=O)CC7)CC6)CC5)ncn4)c3c2)CC1 (stereo not shown) [Compound 83, 2-(2,6-dioxo-3-piperidyl)-5-[4-[[4-fluoro-1-[[1-[6-[5-(1-methylcyclopropoxy)-1H-indazol-3-yl]pyrimidin-4-yl]-4-piperidyl]methyl]-4-piperidyl]methyl]piperazin-1-yl]isoindoline-1,3-dione]
DC50 (G2019S LRRK2; [2]): < 0.01 µM
Dmax (G2019S LRRK2; [2]): ≥ 70%
Dmax (wildtype LRRK2; [3]): 50 to 70%
DC50 (wildtype LRRK2; [3]): < 0.01 µM

CC1(Oc2ccc3[nH]nc(-c4ccnc(N5CC6(CN(CC7CCN(CC8CCN(c9ccc%10c(c9)C(=O)N(C9CCC(=O)NC9=O)C%10=O)CC8)CC7)C6)C5)c4)c3c2)CC1 (stereo not shown) [Compound 161, 2-(2,6-dioxo-3-piperidyl)-5-[4-[[4-[[2-[4-[5-(1-methylcyclopropoxy)-1H-indazol-3-yl]-2-pyridyl]-2,6-diazaspiro[3.3]heptan-6-yl]methyl]-1-piperidyl]methyl]-1-piperidyl]isoindoline-1,3-dione]
DC50 (G2019S LRRK2; [4]): 0.01 to 0.05 µM
Dmax (G2019S LRRK2; [4]): 50 to 70%
Dmax (wildtype LRRK2; [5]): 50 to 70%
DC50 (wildtype LRRK2; [5]): 0.01 to 0.05 µM

CC1(Oc2ccc3[nH]nc(-c4cc(N5C[C@@H]6[C@H](CN7CCN(CC8CCN(c9ccc%10c(c9)C(=O)N(C9CCC(=O)NC9=O)C%10=O)CC8)CC7)[C@@H]6C5)ncn4)c3c2)CC1 (stereo partly shown) [Compound 74, 2-(2,6-dioxo-3-piperidyl)-5-[4-[[4-[[(r, 5s, 6s)-3-[6-[5-(1-methylcyclopropoxy)-1H-indazol-3-yl]pyrimidin-4-yl]-3-azabicyclo[3.1.0]hexan-6-yl]methyl]piperazin-1-yl]methyl]-1-piperidyl]isoindoline-1,3-dione]
DC50 (G2019S LRRK2; [2]): 0.05 to 0.1 µM
Dmax (G2019S LRRK2; [2]): < 50%
Dmax (wildtype LRRK2; [3]): 50 to 70%
DC50 (wildtype LRRK2; [3]): 0.05 to 0.1 µM
